Reference: patent publication US12084579B2, “Cyclophane-sustained high performance porphyrins” (Northwestern University, priority 2020, dated 2024)

Columns and labels:
[1] = Isothermal titration calorimetry, single injection, XCage^8+; format: binding; settings: toward Porp-2H and Porp-Zn
Procedure: Since the high binding affinity and aggregation of the two porphyrins prevent the accurate measurement of binding constants by isothermal titration calorimetry (ITC), a single injection experiment was performed in order to determine the binding enthalpy. The Gibbs free energy of the receptor-substrate complexation was estimated directedly from the corresponding fluorescent titrations, providing a value for TAS. Compared with ExBox^4+, the binding enthalpies of XCage^8+ are in the range of 7-8 kcal mol^−1 larger, a major contributing factor to the enhanced affinity.
Isothermal titration calorimetry: Isothermal titration was performed by TA Nano Isothermal Titration Calorimeter at 25° C. A Hastelloy cell was used with an active cell volume 190 μL. The stirring speed was set at 150 rpm. The solutions of receptors and substrates were prepared in Milli-Q water and allowed to equilibrate overnight if necessary. The aggregation of porphyrins and their high affinity binding prevented the accurate determination of binding constants, we thus only evaluated the binding enthalpy by single injection method.^S17

[2] = Displacement (competitive) fluorescence titration, XCage^8+ displacing ExBox^4+; format: binding; settings: toward Porp-2H and Porp-Zn; water
Procedure: The changes in optical properties upon porphyrin encapsulation enable a facile study of the binding events. Fluorescence titrations of Porp-2H and Porp-Zn with ExBox^4+ yielded directly their binding constants in water. Since the binding affinities for XCage^8+ with Porp-2H and Porp-Zn are too high to be determined directly, competitive titrations were performed by displacing ExBox^4+ with XCage^8+ from the complex Porp-2H(Zn)⊂ExBox^4+. The binding affinities (Table 1) between ExBox^4+ and the two porphyrins are in the order of 10^7 M^−1. […] The samples were equilibrated for 6 h prior to the fluorescence titration studies. […]
Displacement fluorescence titration experiments: The displacement of porphyrins from Porp-2H⊂ExBox^4+ or Porp-Zn⊂ExBox^4+ by XCage^8+ to form Porp-2H⊂XCage^8+ or Porp-Zn⊂XCage^8+ regenerates the fluorescence emission of porphyrin, and the turn-on fluorescence was monitored as the signals to track the formation of the porphyrin inclusion complexes with XCage^8+. […] The samples were equilibrated at room temperature for 6 h, and the fluorescence intensity of each sample was recorded. The average fluorescence intensity of the three sets samples was plotted against the concentration of XCage^8+ to generate the binding isotherm, which was fitted by a displacement binding model^S15 to calculate the binding constant Ka using Origin Lab 8.6 software^S16.

- binding enthalpies larger compared with ExBox^4+ [1]: 7 to 8 kcal/mol
- enhancement in the binding affinities compared with ExBox^4+ [2]: ~1000 fold
Structure (SMILES): c1cc2ccc1C[n+]1ccc(cc1)-c1cc3cc(c1)-c1cc4cc(c1)-c1cc[n+](cc1)Cc1ccc(cc1)C[n+]1ccc(cc1)-c1cc(cc(c1)-c1cc(cc(c1)-c1cc[n+](cc1)Cc1ccc(cc1)C[n+]1ccc-3cc1)-c1cc[n+](cc1)C2)-c1cc[n+](cc1)Cc1ccc(cc1)C[n+]1ccc-4cc1 [XCage^8+]
